Data set [1] has as its system upcyte hepatocytes 653-03 2D6. As to the kind of experiment: Tam metabolism in upcyte hepatocytes 653-03 2D6, metabolites in culture medium. The class given is in vitro ADME, human. The following applies: cells incubated with 1 µM Tam up to 144 h. How it is done:
The medium was replaced every 2–3 days. […].
The culture medium was collected after 24, 48, 72, 96 and 144 h followed by metabolite measurements using HPLC-ESI-MS/MS.
Protein was precipitated by the addition of ACN containing 1% of acetic acid and the corresponding deuterated internal standards to the same volume of the sample followed by centrifugation at 20.000 g for 15 min at RT. […] Analytes were separated on a Zorbax Eclipse Plus C18 column (1.8 µm, 100 × 2.1 mm, Agilent technologies) and detected on a 6460 triple quadrupole mass spectrometer (Agilent technologies) in positive ESI MRM mode. Glucuronides of estrogen-like metabolites were detected separately via MS/MS-measurements in negative ESI MRM mode.
[…]. […] […].

The test system of the next data set is CYP3A4. Put plainly: CYP3A4 activity in upcyte hepatocytes after treatment (probe substrate cocktail). To be noted: 5 µM, 72 h, parental and derived cell line. How it is done:
(§1) Cells were cultivated in hepatocyte culture medium at 37 °C and 5 °% CO2 in a humidified incubator. Before starting experiments, cells were cultivated in hepatocyte culture medium containing 0.5% (v/v) DMSO (Preculture medium) for 5 days (density of 0.8 × 10^4 cells/cm^2) and were subcultivated in high-performance medium containing 0.1% (v/v) DMSO (Metabolism conditioning medium) for 3–5 days (density of 1.6 × 10^5 cells/cm^2, confluence). The medium was replaced every 2–3 days.
(§2) In HLM and supersome™ incubations the formation rate is given as nmol µg^−1 min^−1 and fmol pmol^−1 min^−1, respectively, and was calculated as the mean ± SD. […] The intrinsic Clearance (Clint) was given as Vmax/Km ratio. […] Activity of CYP enzymes in induction assays is given as the fold-change (mean ± SD) compared to the corresponding DMSO-treated control. […] Gene expression patterns of treated cells are given as fold-change compared to the corresponding DMSO-treated control samples, as described above. […] In induction and inhibition experiments corresponding EC50 and IC50 values were calculated by nonlinear regression. In all experiments a level of probability (p) ≤ 0.05 for statistical testing was considered significant.
(§3) As control 0.05 % DMSO was used. The basal CYP activity and induction of CYP activity compared to the DMSO control were measured via HPLC-ESI-MS/MS.

Data set [2] has as its target T1, CYP2C8 (Homo sapiens, UniProt P10632).
T1 sequence (P10632 1-490): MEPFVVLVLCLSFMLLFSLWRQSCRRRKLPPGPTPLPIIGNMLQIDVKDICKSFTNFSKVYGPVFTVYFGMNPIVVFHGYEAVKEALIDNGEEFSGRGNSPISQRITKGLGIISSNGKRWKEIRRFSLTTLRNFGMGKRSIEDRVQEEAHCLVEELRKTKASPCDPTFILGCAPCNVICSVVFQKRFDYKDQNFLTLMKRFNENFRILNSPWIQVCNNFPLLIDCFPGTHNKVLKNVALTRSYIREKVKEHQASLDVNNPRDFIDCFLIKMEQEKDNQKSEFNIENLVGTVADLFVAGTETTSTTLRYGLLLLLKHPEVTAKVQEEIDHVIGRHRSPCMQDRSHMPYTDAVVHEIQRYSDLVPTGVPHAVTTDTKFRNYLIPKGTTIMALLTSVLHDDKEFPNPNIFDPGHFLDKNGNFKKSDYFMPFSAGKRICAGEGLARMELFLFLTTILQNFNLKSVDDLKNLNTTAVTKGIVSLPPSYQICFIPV
As to the kind of experiment: Inhibition of CYP2C8 activity in HLM. In kind it is in vitro ADME. To be noted: 200 nM to 10 µM, 10 min pre-incubation.

For the next data set, the target named is CYP2C9 (Homo sapiens, UniProt P11712). As to the kind of experiment: Inhibition of CYP2C9 activity in HLM. In kind it is in vitro ADME. To be noted: human, human liver microsomes, 200 nM to 10 µM, 10 min pre-incubation.
CYP2C9, sequence (P11712 whole entry): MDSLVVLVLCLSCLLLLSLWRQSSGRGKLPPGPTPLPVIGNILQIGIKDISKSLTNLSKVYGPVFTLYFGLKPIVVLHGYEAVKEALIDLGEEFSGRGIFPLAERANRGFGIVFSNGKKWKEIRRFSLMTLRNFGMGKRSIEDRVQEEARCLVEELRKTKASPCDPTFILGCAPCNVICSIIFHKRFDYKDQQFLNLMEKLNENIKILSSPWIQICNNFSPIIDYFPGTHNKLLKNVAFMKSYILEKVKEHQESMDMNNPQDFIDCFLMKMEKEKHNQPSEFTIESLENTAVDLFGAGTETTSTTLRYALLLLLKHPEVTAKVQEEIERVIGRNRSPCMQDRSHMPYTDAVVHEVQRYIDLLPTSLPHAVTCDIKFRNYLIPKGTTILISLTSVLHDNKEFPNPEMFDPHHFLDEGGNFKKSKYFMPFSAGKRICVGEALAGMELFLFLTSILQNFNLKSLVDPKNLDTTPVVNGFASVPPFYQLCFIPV
Another data set deals with CYP2C19 (Homo sapiens, UniProt P33261). As to the kind of experiment: Inhibition of CYP2C19 activity in HLM. The class given is in vitro ADME. To be noted: human, human liver microsomes, 200 nM to 10 µM, 10 min pre-incubation. (In general: Liver microsomes are vesicles of endoplasmic reticulum, rich in cytochrome P450 enzymes.)
CYP2C19, sequence (P33261 whole entry): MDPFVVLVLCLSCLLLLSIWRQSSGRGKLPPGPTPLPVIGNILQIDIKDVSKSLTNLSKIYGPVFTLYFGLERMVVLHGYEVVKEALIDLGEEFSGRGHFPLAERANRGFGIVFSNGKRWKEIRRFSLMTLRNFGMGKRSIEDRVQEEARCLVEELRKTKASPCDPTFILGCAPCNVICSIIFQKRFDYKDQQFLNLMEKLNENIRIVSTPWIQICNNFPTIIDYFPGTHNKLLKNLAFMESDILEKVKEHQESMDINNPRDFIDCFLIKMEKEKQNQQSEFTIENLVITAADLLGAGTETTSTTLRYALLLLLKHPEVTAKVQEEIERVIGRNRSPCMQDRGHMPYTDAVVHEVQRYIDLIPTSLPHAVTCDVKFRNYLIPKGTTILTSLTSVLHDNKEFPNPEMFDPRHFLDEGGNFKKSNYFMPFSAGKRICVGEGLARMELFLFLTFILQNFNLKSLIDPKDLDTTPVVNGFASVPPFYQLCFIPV
The subject of the next data set is CYP3A4 gene expression. Put plainly: CYP3A4 gene expression in upcyte hepatocytes (Fluidigm RT-PCR). The following applies: 5 µM, 72 h, both cell strains.
Description: Total RNA was isolated from cells using the Direct-zol™ RNA MiniPrep kit (Zymo Research Corp., Irvine, California). cDNA was synthesized using TaqMan Reverse Transcription Reagents (Life technologies, Applera GmbH, Darmstadt, Germany) and the expression of 25 genes representative of phase I and phase II drug metabolism and transport was quantified by Fluidigm’s BioMark HD high-throughput quantitative chip platform (Fluidigm Corporation, San Francisco, USA). For relative gene expression analysis, the delta-delta-Ct (ΔΔCt) method was used: the Ct values of the target mRNA were first normalized to those of the endogenous control glyceraldehyde-3-phosphate dehydrogenase (GAPDH) followed by dividing values of experimental samples by their corresponding DMSO-treated controls to calculate the x-fold changes of mRNA expression.
as §2, §3

The test system of a further data set is CYP2A6 gene expression. As to the kind of experiment: CYP2A6 gene expression in upcyte hepatocytes (Fluidigm RT-PCR). The class given is cell-based, human. To be noted: 5 µM, 72 h, both cell strains. From the text:
(§4) Differences between induced and control samples were compared using Welch’s t-test (GraphPad Prism, version 5.04), when the fold-change was considered biologically relevant (1.5-fold increase or decrease in fold-changes) and corrected for multiple testing according to Bonferroni. […] An unpaired t-test assuming unequal variances was used for testing of differences in the expression patterns, when the fold-change was considered biologically relevant (1.5-fold increase or decrease in fold-changes) and corrected using Bonferroni adjustments.

A further data set deals with SLC10A1 gene expression. As to the kind of experiment: SLC10A1 gene expression in upcyte hepatocytes (Fluidigm RT-PCR). The class given is cell-based, human. To be noted: 5 µM, 72 h, both cell strains.
Description: as §4

Data set [3] concerns the target T1, CYP2C8. Put plainly: CYP2C8 activity in upcyte hepatocytes after treatment (probe substrate cocktail). The following applies: human, upcyte hepatocytes 653-03 and 653-03 2D6, probe amodiaquine 5 µM, 5 µM, both cell lines. In kind it is cell-based. Further details: host or cells: upcyte hepatocytes 653-03 and 653-03 #138 (653-03 2D6). The method, then:
as §1, §2, §3

The text below walks through data of article PMC5866846 (Archives of Toxicology, 2017).

Take `CC/C(=C(\c1ccc(O)cc1)c1ccc(OCCN(C)C)cc1)c1ccccc1` [4OH-Tam, (Z)-4-Hydroxytamoxifen]: in data set [1], the “concentration in the supernatant of 653-03 2D6 cells relative to parental cells” value is “up to 20 times”. The “induction of CYP3A4 activity compared to DMSO control” value with CYP3A4 is “up to 2.1 fold”. For the same molecule, at CYP2C8 [2], the IC50 – broadly, the concentration that inhibits the measured activity by half – was greater than 10 µM and the “IC50 of CYP2C8 activity” value is reported as “only minor inhibition”. Also, the IC50 at 15 min against CYP2C9 is greater than 10 µM. Also, the 50% inhibitory concentration (IC50) at 15 min against CYP2C19 is greater than 10 µM. In the data set on CYP3A4 gene expression, the “CYP3A4 gene expression, induction vs DMSO control” value is “up to 5.6 fold”. Also, in the data set with CYP2A6 gene expression, the “CYP2A6 gene expression, downregulation” value is given as “up to twofold”. The “SLC10A1 gene expression, downregulation (fold lower)” value in the data set on SLC10A1 gene expression is listed as “up to twofold”. On CYP2C8 [3], the inhibition (usually the share of the control response that was lost under treatment) at 72 h, 5 µM was no more than 90%.
